Data from ChEMBL document CHEMBL1201862, “PubChem BioAssay data set” (2004).
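Step 1: Grow cells in 96-well plates. Step 2: Expose to compound for 48 hours at 5 concentrations. Step 3: Interpolate endpoints linearly; if unreached, use highest concentration. GI50 = concentration required for 50% inhibition of growth.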 Activity calls are given as the source filed them. Rule as the data show it: active = GI50 up to about 1.1 µM and inactive = higher.

Key:
Test in all cases: inhibition of tumour cell growth, NCI panel, 48 h
[1] = test system: HCT-116
[2] = test system: HCC 2998
[3] = test system: DU-145
[4] = test system: EKVX
[5] = test system: Malme-3M
[6] = test system: MOLT-4
[7] = test system: HL-60
[8] = test system: HOP-62
[9] = test system: ACHN
[10] = test system: SK-MEL-28
[11] = test system: M14
[12] = test system: MDA-MB-231
[13] = test system: SF-295
[14] = test system: SR
[15] = test system: UACC-257
[16] = test system: SNB-75
[17] = test system: RXF 393
[18] = test system: OVCAR-8
[19] = test system: OVCAR-4

Row | Compound | GI50 [1] | GI50 [2] | GI50 [3] | GI50 [4] | GI50 [5] | GI50 [6] | GI50 [7] | GI50 [8] | GI50 [9] | GI50 [10] | GI50 [11] | GI50 [12] | GI50 [13] | GI50 [14] | GI50 [15] | GI50 [16] | GI50 [17] | GI50 [18] | GI50 [19]
1 | Cc1c(N=C(S)Nc2ccc(Cl)cc2)c(=O)n(-c2ccccc2)n1C | > 100 µM (inactive) | > 100 µM (inactive) | > 100 µM (inactive) | > 100 µM (inactive) | > 100 µM (inactive) | > 100 µM (inactive) | > 100 µM (inactive) | > 100 µM (inactive) | > 100 µM (inactive) | > 100 µM (inactive) | > 100 µM (inactive) | > 100 µM (inactive) | > 100 µM (inactive) | > 100 µM (inactive) | > 100 µM (inactive) | > 100 µM (inactive) | > 100 µM (inactive) |  | 
2 | COc1cc2c(c(OC)c1OC)-c1ccc(SC)c(=O)cc1C(CC(=O)Oc1cccc(C#N)c1)C2 (stereo unspecified) | 0.387 µM (active) | 0.254 µM (active) |  | 0.574 µM (active) | 0.175 µM (active) | 0.536 µM (active) | 0.254 µM (active) | 0.638 µM (active) | 0.593 µM (active) | 0.724 µM (active) | 0.298 µM (active) |  | 0.266 µM (active) | 0.134 µM (active) | 0.516 µM (active) | 0.291 µM (active) | 0.167 µM (active) | 0.423 µM (active) | 3.32 µM (inactive)
3 | CC1[C@@H](OCc2ccccc2)COC(=O)N1Cc1ccccc1 (stereo partly specified) | > 100 µM (inactive) |  | > 100 µM (inactive) | 78.9 µM (inactive) | > 100 µM (inactive) | 33.3 µM (inactive) |  | > 100 µM (inactive) | > 100 µM (inactive) | > 100 µM (inactive) | > 100 µM (inactive) | > 100 µM (inactive) | 46.2 µM (inactive) | > 100 µM (inactive) | 68.4 µM (inactive) | > 100 µM (inactive) |  | > 100 µM (inactive) | 78 µM (inactive)
4 | CC1=CC(=O)NP(=O)(C23CC4CC(CC(C4)C2)C3)N1 (stereo unspecified) | > 100 µM (inactive) |  |  | > 100 µM (inactive) | > 100 µM (inactive) | > 100 µM (inactive) | > 100 µM (inactive) | > 100 µM (inactive) | > 100 µM (inactive) | > 100 µM (inactive) | > 100 µM (inactive) |  | > 100 µM (inactive) | > 100 µM (inactive) | > 100 µM (inactive) | > 100 µM (inactive) |  | > 100 µM (inactive) | > 100 µM (inactive)
5 | O=C1CCCCC[C@]12SC[C@H]1CON=C12 | 35.2 µM (inactive) | 29.1 µM (inactive) | 33.8 µM (inactive) | 31 µM (inactive) | 18.8 µM (inactive) | 36.3 µM (inactive) | 25.9 µM (inactive) |  | 27.8 µM (inactive) | 27.8 µM (inactive) | 22.3 µM (inactive) |  | > 100 µM (inactive) | 9.42 µM (inactive) | 78.2 µM (inactive) |  | 21.1 µM (inactive) | 65.8 µM (inactive) | 73.8 µM (inactive)
6 | CC1(C)CC(=O)C(CC2C(=O)c3ccccc3C2=O)C(=O)C1 | > 100 µM (inactive) | > 100 µM (inactive) |  | > 100 µM (inactive) | > 100 µM (inactive) | > 100 µM (inactive) | > 100 µM (inactive) | > 100 µM (inactive) | > 100 µM (inactive) | > 100 µM (inactive) | > 100 µM (inactive) |  | > 100 µM (inactive) | 53.7 µM (inactive) | > 100 µM (inactive) | > 100 µM (inactive) | > 100 µM (inactive) | > 100 µM (inactive) | > 100 µM (inactive)
7 | Cc1cc(NS(=O)(=O)c2ccc(NC(=O)c3ccc(Cl)c4c(Nc5ccc(S(N)(=O)=O)cc5)c5ccccc5nc34)cc2)no1 | 15.2 µM (inactive) | 18.7 µM (inactive) |  | 33.1 µM (inactive) | 15.5 µM (inactive) | 22.5 µM (inactive) | 13.3 µM (inactive) | 21.2 µM (inactive) | 29.1 µM (inactive) | 20.3 µM (inactive) | 26.9 µM (inactive) |  | 25.1 µM (inactive) | 20.4 µM (inactive) | 24 µM (inactive) | 20.3 µM (inactive) | 16.8 µM (inactive) | 17.9 µM (inactive) | 24.3 µM (inactive)
8 | CSc1ncnc2c1ncn2CCC(=O)O | > 100 µM (inactive) |  | > 100 µM (inactive) | > 100 µM (inactive) | > 100 µM (inactive) | > 100 µM (inactive) | > 100 µM (inactive) | > 100 µM (inactive) | > 100 µM (inactive) | > 100 µM (inactive) | > 100 µM (inactive) | > 100 µM (inactive) | > 100 µM (inactive) | > 100 µM (inactive) | > 100 µM (inactive) | > 100 µM (inactive) | > 100 µM (inactive) | > 100 µM (inactive) | > 100 µM (inactive)
9 | OCCCCOC(c1ccccc1)(c1ccccc1)c1ccccc1 | > 100 µM (inactive) | > 100 µM (inactive) |  |  | > 100 µM (inactive) | > 100 µM (inactive) | > 100 µM (inactive) | > 100 µM (inactive) | > 100 µM (inactive) | > 100 µM (inactive) | > 100 µM (inactive) |  | > 100 µM (inactive) | > 100 µM (inactive) | > 100 µM (inactive) | 67.5 µM (inactive) | > 100 µM (inactive) | > 100 µM (inactive) | > 100 µM (inactive)
10 | C=CCC(C)(C(=O)NCCC)C(=O)c1ccccc1O (stereo unspecified) | > 100 µM (inactive) | > 100 µM (inactive) |  |  | > 100 µM (inactive) | > 100 µM (inactive) | > 100 µM (inactive) | > 100 µM (inactive) | > 100 µM (inactive) | > 100 µM (inactive) | > 100 µM (inactive) |  |  | > 100 µM (inactive) | > 100 µM (inactive) | > 100 µM (inactive) | > 100 µM (inactive) | > 100 µM (inactive) | > 100 µM (inactive)
11 | C=CCNC1=C(C(=O)OCC)C(=O)CO1 | > 100 µM (inactive) | > 100 µM (inactive) |  | > 100 µM (inactive) | > 100 µM (inactive) | > 100 µM (inactive) | > 100 µM (inactive) |  | > 100 µM (inactive) | > 100 µM (inactive) | > 100 µM (inactive) |  | > 100 µM (inactive) | > 100 µM (inactive) | > 100 µM (inactive) | > 100 µM (inactive) | > 100 µM (inactive) | > 100 µM (inactive) | > 100 µM (inactive)
12 | COc1cc(Br)c(CC2(C#N)c3ccccc3C3C(N2C(=O)c2ccccc2)C3(Cl)Cl)cc1OC (stereo unspecified) | > 65.5 µM (inactive) | 20.9 µM (inactive) |  | > 65.5 µM (inactive) | > 65.5 µM (inactive) | 2.03 µM (inactive) | 1.51 µM (inactive) |  | > 65.5 µM (inactive) | > 65.5 µM (inactive) | 42.4 µM (inactive) |  |  | 4.01 µM (inactive) | 15.8 µM (inactive) | > 65.5 µM (inactive) | > 65.5 µM (inactive) | > 65.5 µM (inactive) | 
13 | C=CCNC(=S)N1CC(C)C(=O)Nc2cc(Cl)ccc21 (stereo unspecified) | > 100 µM (inactive) |  |  | > 100 µM (inactive) | 82 µM (inactive) | > 100 µM (inactive) | > 100 µM (inactive) | > 100 µM (inactive) | > 100 µM (inactive) | > 100 µM (inactive) | > 100 µM (inactive) |  | > 100 µM (inactive) | > 100 µM (inactive) | > 100 µM (inactive) | > 100 µM (inactive) | > 100 µM (inactive) | > 100 µM (inactive) | > 100 µM (inactive)
14 | COC(=O)[C@H](CC(C)C)NC(=O)[C@H](Cc1ccccc1)N1CC2C=CC1C2 (stereo partly specified) |  | > 100 µM (inactive) |  | > 100 µM (inactive) | > 100 µM (inactive) | > 100 µM (inactive) | 47.6 µM (inactive) | > 100 µM (inactive) | > 100 µM (inactive) | > 100 µM (inactive) | > 100 µM (inactive) |  | > 100 µM (inactive) |  | > 100 µM (inactive) | > 100 µM (inactive) | > 100 µM (inactive) | > 100 µM (inactive) | > 100 µM (inactive)
15 | Cc1c(C(=O)CSc2nc3ccccc3[nH]2)c(=O)n(-c2ccccc2)n1C | > 100 µM (inactive) | > 100 µM (inactive) |  |  | 34.9 µM (inactive) | > 100 µM (inactive) | > 100 µM (inactive) | > 100 µM (inactive) | > 100 µM (inactive) | > 100 µM (inactive) | > 100 µM (inactive) |  | > 100 µM (inactive) | > 100 µM (inactive) | > 100 µM (inactive) | > 100 µM (inactive) |  | > 100 µM (inactive) | > 100 µM (inactive)
16 | CN(c1ccc(Cl)cc1)S(=O)(=O)c1cccc([N+](=O)[O-])c1 | 34 µM (inactive) | 79.1 µM (inactive) | > 100 µM (inactive) | 66.5 µM (inactive) | 69.2 µM (inactive) | 17.2 µM (inactive) | > 10 µM (inactive) | 89.3 µM (inactive) | 99.1 µM (inactive) | 95.9 µM (inactive) | 43.4 µM (inactive) | 44 µM (inactive) | > 100 µM (inactive) | 52.6 µM (inactive) | > 100 µM (inactive) | 56.5 µM (inactive) | 45.4 µM (inactive) | > 100 µM (inactive) | > 100 µM (inactive)
17 | Cc1c(/C=N/NC(=O)c2ccccc2)c(=O)n(-c2ccccc2)n1C | > 100 µM (inactive) | > 100 µM (inactive) |  | > 100 µM (inactive) | > 100 µM (inactive) | > 100 µM (inactive) | > 100 µM (inactive) | > 100 µM (inactive) | > 100 µM (inactive) | > 100 µM (inactive) | > 100 µM (inactive) |  | > 100 µM (inactive) | > 100 µM (inactive) | > 100 µM (inactive) | > 100 µM (inactive) | > 100 µM (inactive) | > 100 µM (inactive) | > 100 µM (inactive)
